Results as given in ChEMBL document CHEMBL4507276 (2021).

Assays:
[1] = biological target: Casein kinase I isoform gamma-3 (Homo sapiens) (UniProt Q9Y6M4); settings: Compound concentration 1000.0 nM
[2] = system: Tyrosine-protein kinase ABL1 (Homo sapiens), P00519 [T315I]; settings: Compound concentration 1000.0 nM
[3] = biological target: Ephrin type-A receptor 3 (Homo sapiens) (UniProt P29320); settings: Compound concentration 1000.0 nM
[4] = system: Fibroblast growth factor receptor 3 (Homo sapiens), P22607 [G697C]; settings: Compound concentration 1000.0 nM
Chain of Fibroblast growth factor receptor 3 (Homo sapiens), P22607 [G697C] (P22607 whole entry G697C): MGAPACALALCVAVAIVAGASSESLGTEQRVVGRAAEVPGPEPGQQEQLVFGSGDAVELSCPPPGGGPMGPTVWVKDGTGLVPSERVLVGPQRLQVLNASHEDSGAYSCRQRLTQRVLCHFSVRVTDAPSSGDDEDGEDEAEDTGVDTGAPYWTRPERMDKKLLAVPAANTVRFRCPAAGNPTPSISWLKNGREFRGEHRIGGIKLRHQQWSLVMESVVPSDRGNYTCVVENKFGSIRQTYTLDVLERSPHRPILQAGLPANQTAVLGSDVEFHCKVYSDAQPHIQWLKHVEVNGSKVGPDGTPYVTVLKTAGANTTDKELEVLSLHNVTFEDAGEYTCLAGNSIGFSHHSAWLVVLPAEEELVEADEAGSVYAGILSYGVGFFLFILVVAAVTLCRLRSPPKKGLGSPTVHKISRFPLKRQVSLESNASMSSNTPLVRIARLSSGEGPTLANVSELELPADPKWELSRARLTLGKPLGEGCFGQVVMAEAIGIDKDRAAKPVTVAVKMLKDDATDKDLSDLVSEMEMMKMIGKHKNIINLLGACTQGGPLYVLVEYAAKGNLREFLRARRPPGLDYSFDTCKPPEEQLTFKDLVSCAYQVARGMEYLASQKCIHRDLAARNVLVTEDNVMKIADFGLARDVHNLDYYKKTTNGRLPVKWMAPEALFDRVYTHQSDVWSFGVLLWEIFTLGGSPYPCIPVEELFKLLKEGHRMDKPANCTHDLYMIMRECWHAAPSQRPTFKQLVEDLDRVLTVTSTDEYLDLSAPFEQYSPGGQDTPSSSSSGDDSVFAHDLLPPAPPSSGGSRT

[5] = biological target: T1, Ephrin type-B receptor 4 (Homo sapiens) (UniProt P54760); settings: Compound concentration 1000.0 nM
T1 sequence (whole entry): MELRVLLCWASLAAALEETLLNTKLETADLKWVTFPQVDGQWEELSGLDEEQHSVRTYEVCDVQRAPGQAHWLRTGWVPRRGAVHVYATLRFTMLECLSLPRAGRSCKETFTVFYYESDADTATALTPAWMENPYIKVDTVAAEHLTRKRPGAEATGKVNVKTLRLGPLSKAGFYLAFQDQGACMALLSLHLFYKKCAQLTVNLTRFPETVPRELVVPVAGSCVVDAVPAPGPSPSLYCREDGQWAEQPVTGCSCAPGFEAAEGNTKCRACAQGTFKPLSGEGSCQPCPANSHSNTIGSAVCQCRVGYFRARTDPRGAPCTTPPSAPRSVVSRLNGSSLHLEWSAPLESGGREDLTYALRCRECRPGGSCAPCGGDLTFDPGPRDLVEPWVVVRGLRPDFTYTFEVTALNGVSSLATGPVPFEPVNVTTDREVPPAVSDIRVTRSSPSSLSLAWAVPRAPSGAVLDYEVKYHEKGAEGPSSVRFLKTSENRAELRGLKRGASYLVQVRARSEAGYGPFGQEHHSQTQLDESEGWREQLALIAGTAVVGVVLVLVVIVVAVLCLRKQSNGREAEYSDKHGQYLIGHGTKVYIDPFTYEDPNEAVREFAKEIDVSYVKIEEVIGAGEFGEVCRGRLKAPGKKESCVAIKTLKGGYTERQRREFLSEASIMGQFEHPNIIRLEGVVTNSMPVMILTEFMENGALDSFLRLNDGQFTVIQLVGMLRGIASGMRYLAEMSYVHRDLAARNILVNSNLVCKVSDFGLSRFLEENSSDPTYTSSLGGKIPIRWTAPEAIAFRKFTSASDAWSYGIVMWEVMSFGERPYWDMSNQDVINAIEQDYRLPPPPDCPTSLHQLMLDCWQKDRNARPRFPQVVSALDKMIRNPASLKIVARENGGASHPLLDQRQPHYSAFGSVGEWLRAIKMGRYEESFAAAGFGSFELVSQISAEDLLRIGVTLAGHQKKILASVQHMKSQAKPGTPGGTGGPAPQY

[6] = system: Tyrosine-protein kinase ABL1 (Homo sapiens), P00519 [Y253F]; settings: Compound concentration 1000.0 nM
[7] = biological target: T2, Alpha-1B adrenergic receptor (Homo sapiens) (UniProt P35368); settings: Compound concentration 10.0 uM
T2 sequence (whole entry): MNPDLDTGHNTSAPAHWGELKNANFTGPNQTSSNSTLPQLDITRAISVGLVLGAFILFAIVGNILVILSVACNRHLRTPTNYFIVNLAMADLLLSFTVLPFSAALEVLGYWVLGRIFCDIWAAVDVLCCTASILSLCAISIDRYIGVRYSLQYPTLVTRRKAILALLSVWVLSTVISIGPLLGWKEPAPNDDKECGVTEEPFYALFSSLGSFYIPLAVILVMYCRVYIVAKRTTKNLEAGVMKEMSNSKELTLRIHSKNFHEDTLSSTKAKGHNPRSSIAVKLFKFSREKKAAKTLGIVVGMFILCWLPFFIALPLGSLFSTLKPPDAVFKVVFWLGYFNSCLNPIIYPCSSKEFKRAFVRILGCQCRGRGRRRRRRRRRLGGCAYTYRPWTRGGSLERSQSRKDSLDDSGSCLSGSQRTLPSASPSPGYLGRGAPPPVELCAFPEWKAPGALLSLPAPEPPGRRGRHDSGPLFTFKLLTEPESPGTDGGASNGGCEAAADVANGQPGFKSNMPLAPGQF

[8] = biological target: Phosphatidylinositol 4,5-bisphosphate 3-kinase catalytic subunit delta isoform (Homo sapiens) (UniProt O00329); settings: Compound concentration 1000.0 nM
[9] = biological target: Serine/threonine-protein kinase 32B (Homo sapiens) (UniProt Q9NY57); settings: Compound concentration 1000.0 nM
[10] = biological target: Serine/threonine-protein kinase pim-2 (Homo sapiens) (UniProt Q9P1W9); settings: Compound concentration 1000.0 nM
Chain of Serine/threonine-protein kinase pim-2 (Homo sapiens) (Q9P1W9 whole entry, looked up): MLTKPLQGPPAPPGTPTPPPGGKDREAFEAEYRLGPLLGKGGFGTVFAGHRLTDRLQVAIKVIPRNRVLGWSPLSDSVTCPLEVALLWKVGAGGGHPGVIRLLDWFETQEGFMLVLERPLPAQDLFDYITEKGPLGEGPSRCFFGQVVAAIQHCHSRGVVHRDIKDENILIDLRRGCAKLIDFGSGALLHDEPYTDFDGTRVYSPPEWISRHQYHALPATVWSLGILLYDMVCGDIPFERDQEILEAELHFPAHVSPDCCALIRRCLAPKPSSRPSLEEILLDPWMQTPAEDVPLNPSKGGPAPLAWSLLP

[11] = biological target: Cyclin-dependent kinase 19 (Homo sapiens) (UniProt Q9BWU1); settings: Compound concentration 1000.0 nM
[12] = biological target: Dual specificity testis-specific protein kinase 1 (Homo sapiens) (UniProt Q15569); settings: Compound concentration 1000.0 nM
[13] = biological target: Serine/threonine-protein kinase PAK 6 (Homo sapiens) (UniProt Q9NQU5); settings: Compound concentration 1000.0 nM
[14] = system: Phosphatidylinositol 4,5-bisphosphate 3-kinase catalytic subunit alpha isoform (Homo sapiens), P42336 [M1043I]; settings: Compound concentration 1000.0 nM
Chain of Phosphatidylinositol 4,5-bisphosphate 3-kinase catalytic subunit alpha isoform (Homo sapiens), P42336 [M1043I] (P42336 whole entry M1043I, canonical isoform): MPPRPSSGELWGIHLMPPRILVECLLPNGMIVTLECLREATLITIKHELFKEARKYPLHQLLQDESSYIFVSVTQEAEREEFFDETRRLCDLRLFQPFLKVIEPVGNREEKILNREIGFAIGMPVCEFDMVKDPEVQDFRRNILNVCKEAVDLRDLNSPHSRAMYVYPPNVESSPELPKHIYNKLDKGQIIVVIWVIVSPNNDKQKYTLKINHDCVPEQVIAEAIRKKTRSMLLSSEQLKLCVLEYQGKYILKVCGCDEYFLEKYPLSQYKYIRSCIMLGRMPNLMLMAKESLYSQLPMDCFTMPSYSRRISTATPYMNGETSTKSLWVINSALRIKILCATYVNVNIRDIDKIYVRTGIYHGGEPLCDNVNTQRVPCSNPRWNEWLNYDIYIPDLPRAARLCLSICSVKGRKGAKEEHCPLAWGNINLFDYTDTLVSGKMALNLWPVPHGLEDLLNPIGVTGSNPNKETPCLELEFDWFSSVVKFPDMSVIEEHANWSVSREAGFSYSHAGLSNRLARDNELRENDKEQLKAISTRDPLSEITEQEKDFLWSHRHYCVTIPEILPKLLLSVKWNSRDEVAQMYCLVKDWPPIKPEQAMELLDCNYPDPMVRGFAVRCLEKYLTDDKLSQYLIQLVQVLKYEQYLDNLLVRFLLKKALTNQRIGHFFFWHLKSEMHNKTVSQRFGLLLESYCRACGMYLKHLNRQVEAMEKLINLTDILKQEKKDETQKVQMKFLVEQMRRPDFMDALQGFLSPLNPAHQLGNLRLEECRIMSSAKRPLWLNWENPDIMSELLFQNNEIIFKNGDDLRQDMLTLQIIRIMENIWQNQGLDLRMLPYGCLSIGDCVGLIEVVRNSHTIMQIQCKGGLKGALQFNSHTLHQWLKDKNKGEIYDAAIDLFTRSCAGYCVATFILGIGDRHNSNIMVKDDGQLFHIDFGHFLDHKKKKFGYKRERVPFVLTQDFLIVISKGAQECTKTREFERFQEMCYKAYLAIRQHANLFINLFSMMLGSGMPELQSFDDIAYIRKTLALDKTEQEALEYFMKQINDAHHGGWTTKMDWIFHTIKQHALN

[15] = biological target: Interleukin-1 receptor-associated kinase 3 (Homo sapiens) (UniProt Q9Y616); settings: Compound concentration 1000.0 nM
Chain of Interleukin-1 receptor-associated kinase 3 (Homo sapiens) (Q9Y616 whole entry): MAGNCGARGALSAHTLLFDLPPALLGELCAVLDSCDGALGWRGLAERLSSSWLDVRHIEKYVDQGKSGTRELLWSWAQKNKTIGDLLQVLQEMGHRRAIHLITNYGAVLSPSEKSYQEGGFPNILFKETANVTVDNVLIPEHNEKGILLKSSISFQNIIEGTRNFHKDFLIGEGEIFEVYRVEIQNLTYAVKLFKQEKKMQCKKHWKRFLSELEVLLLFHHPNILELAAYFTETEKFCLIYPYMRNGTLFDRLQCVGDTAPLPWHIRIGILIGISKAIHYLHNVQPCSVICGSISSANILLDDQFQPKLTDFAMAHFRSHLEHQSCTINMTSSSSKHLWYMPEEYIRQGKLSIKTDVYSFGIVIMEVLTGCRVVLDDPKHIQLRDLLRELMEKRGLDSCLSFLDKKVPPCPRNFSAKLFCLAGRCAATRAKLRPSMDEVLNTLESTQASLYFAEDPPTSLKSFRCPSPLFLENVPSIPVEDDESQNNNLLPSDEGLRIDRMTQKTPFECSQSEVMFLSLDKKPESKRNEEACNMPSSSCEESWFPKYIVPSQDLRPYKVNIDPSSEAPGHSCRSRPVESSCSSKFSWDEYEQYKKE

[16] = system: Serine/threonine-protein kinase B-raf (Homo sapiens), P15056 [V600E]; settings: Compound concentration 1000.0 nM
[17] = biological target: Aurora kinase B (Homo sapiens) (UniProt Q96GD4); settings: Compound concentration 1000.0 nM
Chain of Aurora kinase B (Homo sapiens) (Q96GD4 whole entry): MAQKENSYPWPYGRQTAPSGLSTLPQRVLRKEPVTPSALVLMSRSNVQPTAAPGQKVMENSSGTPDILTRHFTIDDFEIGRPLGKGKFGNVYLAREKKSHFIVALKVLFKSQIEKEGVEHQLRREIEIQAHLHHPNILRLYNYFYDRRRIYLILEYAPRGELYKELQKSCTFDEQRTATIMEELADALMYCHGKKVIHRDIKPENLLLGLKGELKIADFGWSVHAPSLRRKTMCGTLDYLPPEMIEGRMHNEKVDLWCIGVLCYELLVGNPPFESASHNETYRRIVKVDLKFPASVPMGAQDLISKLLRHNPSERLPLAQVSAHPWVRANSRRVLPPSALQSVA

[18] = biological target: Ephrin type-B receptor 6 (Homo sapiens) (UniProt O15197); settings: Compound concentration 1000.0 nM
Chain of Ephrin type-B receptor 6 (Homo sapiens) (O15197 whole entry): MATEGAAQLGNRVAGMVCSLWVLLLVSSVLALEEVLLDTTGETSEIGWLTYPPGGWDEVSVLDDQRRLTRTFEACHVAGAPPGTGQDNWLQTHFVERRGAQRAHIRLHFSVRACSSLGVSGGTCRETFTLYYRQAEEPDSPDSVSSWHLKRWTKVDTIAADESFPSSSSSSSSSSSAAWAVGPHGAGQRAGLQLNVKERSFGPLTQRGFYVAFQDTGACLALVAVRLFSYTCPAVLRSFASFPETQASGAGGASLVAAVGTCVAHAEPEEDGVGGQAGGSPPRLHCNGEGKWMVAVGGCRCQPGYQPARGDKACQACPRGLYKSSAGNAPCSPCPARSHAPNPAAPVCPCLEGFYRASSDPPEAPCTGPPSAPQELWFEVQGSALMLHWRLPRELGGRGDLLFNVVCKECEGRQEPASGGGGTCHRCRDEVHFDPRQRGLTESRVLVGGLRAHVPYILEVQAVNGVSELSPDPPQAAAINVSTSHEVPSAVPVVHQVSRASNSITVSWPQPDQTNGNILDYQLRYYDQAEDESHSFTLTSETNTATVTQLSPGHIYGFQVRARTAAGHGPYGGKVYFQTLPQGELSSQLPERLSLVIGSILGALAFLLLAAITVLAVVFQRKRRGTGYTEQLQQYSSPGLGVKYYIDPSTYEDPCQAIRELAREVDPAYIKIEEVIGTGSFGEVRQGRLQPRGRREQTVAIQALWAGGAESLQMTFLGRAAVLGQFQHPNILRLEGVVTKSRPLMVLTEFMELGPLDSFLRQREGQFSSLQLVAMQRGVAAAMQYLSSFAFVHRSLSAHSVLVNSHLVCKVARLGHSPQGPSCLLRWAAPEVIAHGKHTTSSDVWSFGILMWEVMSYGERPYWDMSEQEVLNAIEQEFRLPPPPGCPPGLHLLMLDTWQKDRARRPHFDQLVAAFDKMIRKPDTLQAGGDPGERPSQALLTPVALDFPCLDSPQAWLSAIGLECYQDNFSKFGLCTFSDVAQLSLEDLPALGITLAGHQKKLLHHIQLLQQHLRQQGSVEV

[19] = biological target: Serine/threonine-protein kinase 16 (Homo sapiens) (UniProt O75716); settings: Compound concentration 1000.0 nM
Chain of Serine/threonine-protein kinase 16 (Homo sapiens) (O75716 whole entry): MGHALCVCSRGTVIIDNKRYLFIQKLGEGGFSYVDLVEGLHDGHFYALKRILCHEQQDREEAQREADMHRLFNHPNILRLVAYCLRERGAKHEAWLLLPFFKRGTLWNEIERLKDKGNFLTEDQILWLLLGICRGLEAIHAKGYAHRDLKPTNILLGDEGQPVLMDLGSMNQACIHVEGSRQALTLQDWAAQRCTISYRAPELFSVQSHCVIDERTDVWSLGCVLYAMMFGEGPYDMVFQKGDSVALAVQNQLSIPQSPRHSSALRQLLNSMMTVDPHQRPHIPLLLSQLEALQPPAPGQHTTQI

[20] = biological target: Serine/threonine-protein kinase PAK 2 (Homo sapiens) (UniProt Q13177); settings: Compound concentration 1000.0 nM
[21] = biological target: Ribosomal protein S6 kinase beta-1 (Homo sapiens) (UniProt P23443); settings: Compound concentration 1000.0 nM
Chain of Ribosomal protein S6 kinase beta-1 (Homo sapiens) (P23443 whole entry, looked up, canonical isoform): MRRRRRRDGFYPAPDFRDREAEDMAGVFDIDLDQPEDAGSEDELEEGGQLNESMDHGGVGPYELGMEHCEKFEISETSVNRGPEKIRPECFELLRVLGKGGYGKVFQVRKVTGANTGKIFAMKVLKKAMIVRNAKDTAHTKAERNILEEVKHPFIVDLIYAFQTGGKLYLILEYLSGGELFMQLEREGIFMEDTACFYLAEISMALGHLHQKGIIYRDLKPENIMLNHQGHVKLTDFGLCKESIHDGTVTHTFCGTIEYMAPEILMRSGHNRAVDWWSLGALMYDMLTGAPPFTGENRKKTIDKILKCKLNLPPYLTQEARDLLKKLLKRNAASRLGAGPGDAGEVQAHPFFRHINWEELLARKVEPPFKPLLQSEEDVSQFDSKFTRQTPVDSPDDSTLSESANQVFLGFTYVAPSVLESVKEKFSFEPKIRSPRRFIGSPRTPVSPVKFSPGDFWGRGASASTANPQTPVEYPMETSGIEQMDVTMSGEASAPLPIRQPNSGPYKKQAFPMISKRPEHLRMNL

[22] = biological target: Casein kinase I isoform alpha-like (Homo sapiens) (UniProt Q8N752); settings: Compound concentration 1000.0 nM
[23] = biological target: Serine/threonine-protein kinase PAK 4 (Homo sapiens) (UniProt O96013); settings: Compound concentration 1000.0 nM
[24] = biological target: Serine/threonine-protein kinase WNK1 (Homo sapiens) (UniProt Q9H4A3); settings: Compound concentration 1000.0 nM
[25] = biological target: Angiopoietin-1 receptor (Homo sapiens) (UniProt Q02763); settings: Compound concentration 1000.0 nM

SMILES	residual activity [1] [%]	residual activity [2] [%]	residual activity [3] [%]	residual activity [4] [%]	residual activity [5] [%]	residual activity [6] [%]	inhibition [7] [%]	residual activity [8] [%]	residual activity [9] [%]	residual activity [10] [%]	residual activity [11] [%]	residual activity [12] [%]	residual activity [13] [%]	residual activity [14] [%]	residual activity [15] [%]	residual activity [16] [%]	residual activity [17] [%]	residual activity [18] [%]	residual activity [19] [%]	residual activity [20] [%]	further results
CN(C)C(=O)Cn1cc(-c2nc(C3(c4ccc(-c5cnc(N)nc5)cc4)CC3)no2)cn1 [BI 0153]	100	82	89	100	100	98	5.11	100	100	100	93	94	100	100	96	87	41	93	100	100	residual activity [21]: 91%; residual activity [22]: 98%; residual activity [23]: 100%; residual activity [24]: 97%; residual activity [25]: 88%
CN(C)C(=O)Cn1cc(-c2nc([C@@](C)(c3ccc(-c4cnc(N)nc4)cc3)C3CC3)no2)cn1 [BI 665915]	95	86	100	89	100	76	2.84	93	100	100	100	90	100	100	100	89	96	76	100	90	residual activity [21]: 83%; residual activity [22]: 100%; residual activity [23]: 96%; residual activity [24]: 94%; residual activity [25]: 100%
